Data from patent US11076594B2, “Pyrazolone compound or salt thereof, preparation method therefor, herbicide composition and use thereof” (QINGDAO KINGAGROOT CHEMICAL COMPOUNDS CO., LTD., priority 2015, dated 2021).

What was measured:
Type in all cases: in vivo
[1] = tested on: rice; assay: post-emergence stage experiment, crop (Table 1); conditions: post-emergence spray at 4-5 leaf stage, 250 g/ha active ingredient with 450 kg/ha water, rated after 3 weeks in greenhouse
Procedure, shortened: (§1)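 Fresh-weight reduction is recorded three weeks after a sprayer applies the acetone/Tween 80 aqueous compound solution to greenhouse-grown plants at the 4-5 leaf stage.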

[2] = tested on: wheat; assay: wheat field test, crop selectivity, greenhouse spray at 4 leaf stage; conditions: sprayed at 4 leaf stage, 4 weeks after treatment
Procedure: (§2) The activity level standard of harmful plant destruction (i.e. growth control rate) is as follows:
(§3) The above described growth control rate is fresh weight control rate.
(§4) The seeds of alopecurus japonicas, flixweed, shepherd's purse, corn gromwell, chickweed, beckmannia syzigachne, and annual ryegrass and wheat seeds were put into a plastic pot loaded with soil, and then covered with 0.5-2 cm soil, the seeds were allowed to grow in good greenhouse environment. The test plants were treated at 4 leaf stage 2-3 weeks after sowing. The test compounds of the present invention were dissolved in acetone respectively, then added with methyl oleate emulsion and diluted by certain amount of water to certain concentration. The solution was sprayed to the plant with a sprayer. Then the plants were cultured for 4 weeks in greenhouse.

[3] = tested on: alopecurus japonicas; assay: wheat field resistant weed control, greenhouse spray at 4 leaf stage; set-up: key: Level 10: completely dead; Level 9: above 95% growth control rate; Level 8: above 90% growth control rate; Level 7: above 80% growth control rate; Level 6: above 70% growth control rate; Level 5: above 60% growth control rate; Level 4: above 50% growth control rate; Level 3: above 20% growth control rate; Level 2: 5%-20% growth control rate; Level 1: below 5% growth control rate; conditions: sprayed at 4 leaf stage, 4 weeks after treatment, resistant to ALS and ACCase inhibitor herbicides
Procedure: as §2, §3, §4

[4] = tested on: corn; assay: post-emergence stage experiment, crop (Table 1); conditions: post-emergence spray at 4-5 leaf stage, 250 g/ha active ingredient with 450 kg/ha water, rated after 3 weeks in greenhouse
Procedure, shortened: as §1

[5] = tested on: wheat; assay: post-emergence stage experiment, crop (Table 1); conditions: post-emergence spray at 4-5 leaf stage, 250 g/ha active ingredient with 450 kg/ha water, rated after 3 weeks in greenhouse
Procedure, shortened: as §1

[6] = tested on: echinochloa; assay: weed control effect in post-emergence stage (Table 1); set-up: key: Level 10: completely dead; Level 9: above 95% growth control rate; Level 8: above 90% growth control rate; Level 7: above 80% growth control rate; Level 6: above 70% growth control rate; Level 5: above 60% growth control rate; Level 4: above 50% growth control rate; Level 3: above 20% growth control rate; Level 2: 5%-20% growth control rate; Level 1: below 5% growth control rate; conditions: post-emergence spray at 4-5 leaf stage, 250 g/ha active ingredient with 450 kg/ha water, rated after 3 weeks in greenhouse
Procedure, shortened: as §1

[7] = tested on: Indian mallow; assay: as above; set-up: key: Level 10: completely dead; Level 9: above 95% growth control rate; Level 8: above 90% growth control rate; Level 7: above 80% growth control rate; Level 6: above 70% growth control rate; Level 5: above 60% growth control rate; Level 4: above 50% growth control rate; Level 3: above 20% growth control rate; Level 2: 5%-20% growth control rate; Level 1: below 5% growth control rate; conditions: post-emergence spray at 4-5 leaf stage, 250 g/ha active ingredient with 450 kg/ha water, rated after 3 weeks in greenhouse
Procedure, shortened: as §1

[8] = tested on: crab grass; assay: as above; set-up: key: Level 10: completely dead; Level 9: above 95% growth control rate; Level 8: above 90% growth control rate; Level 7: above 80% growth control rate; Level 6: above 70% growth control rate; Level 5: above 60% growth control rate; Level 4: above 50% growth control rate; Level 3: above 20% growth control rate; Level 2: 5%-20% growth control rate; Level 1: below 5% growth control rate; conditions: post-emergence spray at 4-5 leaf stage, 250 g/ha active ingredient with 450 kg/ha water, rated after 3 weeks in greenhouse
Procedure, shortened: as §1

[9] = tested on: foxtail; assay: as above; set-up: key: Level 10: completely dead; Level 9: above 95% growth control rate; Level 8: above 90% growth control rate; Level 7: above 80% growth control rate; Level 6: above 70% growth control rate; Level 5: above 60% growth control rate; Level 4: above 50% growth control rate; Level 3: above 20% growth control rate; Level 2: 5%-20% growth control rate; Level 1: below 5% growth control rate; conditions: post-emergence spray at 4-5 leaf stage, 250 g/ha active ingredient with 450 kg/ha water, rated after 3 weeks in greenhouse
Procedure, shortened: as §1

[10] = tested on: bidens bipinnata; assay: as above; set-up: key: Level 10: completely dead; Level 9: above 95% growth control rate; Level 8: above 90% growth control rate; Level 7: above 80% growth control rate; Level 6: above 70% growth control rate; Level 5: above 60% growth control rate; Level 4: above 50% growth control rate; Level 3: above 20% growth control rate; Level 2: 5%-20% growth control rate; Level 1: below 5% growth control rate; conditions: post-emergence spray at 4-5 leaf stage, 250 g/ha active ingredient with 450 kg/ha water, rated after 3 weeks in greenhouse
Procedure, shortened: as §1

[11] = tested on: rorippa indica; assay: as above; set-up: key: Level 10: completely dead; Level 9: above 95% growth control rate; Level 8: above 90% growth control rate; Level 7: above 80% growth control rate; Level 6: above 70% growth control rate; Level 5: above 60% growth control rate; Level 4: above 50% growth control rate; Level 3: above 20% growth control rate; Level 2: 5%-20% growth control rate; Level 1: below 5% growth control rate; conditions: post-emergence spray at 4-5 leaf stage, 250 g/ha active ingredient with 450 kg/ha water, rated after 3 weeks in greenhouse
Procedure, shortened: as §1

Row | SMILES | effect on crop, Rice (level) [1] | Wheat (activity level, crop damage) ([2]; 2 g/mu) | Wheat (activity level, crop damage) ([2]; 4 g/mu) | Wheat (activity level, crop damage) ([2]; 8 g/mu) | Wheat (activity level, crop damage) ([2]; 16 g/mu) | Wheat (activity level, crop damage) ([2]; 32 g/mu) | Alopecurus japonicas weed controlling effect (activity level) ([3]; 1 g/mu) | Alopecurus japonicas weed controlling effect (activity level) ([3]; 2 g/mu) | Alopecurus japonicas weed controlling effect (activity level) ([3]; 4 g/mu) | Alopecurus japonicas weed controlling effect (activity level) ([3]; 8 g/mu) | effect on crop, Corn (level) [4] | effect on crop, Wheat (level) [5] | weed control effect, Echinochloa (level) [6] | weed control effect, Indian mallow (level) [7] | weed control effect, Crab grass (level) [8] | weed control effect, Green foxtail (level) [9] | weed control effect, Bidens bipinnata (level) [10] | weed control effect, Rorippa indica (level) [11]
1 | CCOc1c(C(=O)Oc2c(C(=O)c3ccc(C(F)(F)F)c(N4CCCC4=O)c3Cl)c(C)nn2C)cnn1C [Compound 021] | 5 (Level 5: above 60% growth control rate) | 0 | 1 (Level 1: below 5% growth control rate) | 4 (Level 4: above 50% growth control rate) | 4 (Level 4: above 50% growth control rate) | 4 (Level 4: above 50% growth control rate) | 2 (Level 2: 5%-20% growth control rate) | 6 (Level 6: above 70% growth control rate) | 10 | 10 | 3 (Level 3: above 20% growth control rate) | 3 (Level 3: above 20% growth control rate) | 6 (Level 6: above 70% growth control rate) | 9 (Level 9: above 95% growth control rate) | 7 (Level 7: above 80% growth control rate) | 10 |  | 
2 | CCOc1c(C(=O)Oc2c(C(=O)c3ccc(C(F)(F)F)c(N4CCCC4=O)c3Cl)c(C3CC3)nn2C)cnn1C [Compound 026] | 8 (Level 8: above 90% growth control rate) | 1 (Level 1: below 5% growth control rate) | 3 (Level 3: above 20% growth control rate) | 8 (Level 8: above 90% growth control rate) | 8 (Level 8: above 90% growth control rate) | 8 (Level 8: above 90% growth control rate) | 8 (Level 8: above 90% growth control rate) | 10 | 10 | 10 | 4 (Level 4: above 50% growth control rate) | 4 (Level 4: above 50% growth control rate) | 6 (Level 6: above 70% growth control rate) | 10 | 10 | 10 | 5 (Level 5: above 60% growth control rate) | 
3 | Cc1nn(C)cc1C(=O)Oc1c(C(=O)c2ccc(C(F)(F)F)c(N3CCCC3=O)c2Cl)c(C2CC2)nn1C [Compound 027] | 7 (Level 7: above 80% growth control rate) | 1 (Level 1: below 5% growth control rate) | 4 (Level 4: above 50% growth control rate) | 4 (Level 4: above 50% growth control rate) | 4 (Level 4: above 50% growth control rate) | 5 (Level 5: above 60% growth control rate) | 6 (Level 6: above 70% growth control rate) | 10 | 10 | 10 | 4 (Level 4: above 50% growth control rate) | 3 (Level 3: above 20% growth control rate) | 7 (Level 7: above 80% growth control rate) | 10 | 8 (Level 8: above 90% growth control rate) | 10 | 8 (Level 8: above 90% growth control rate) | 7 (Level 7: above 80% growth control rate)
4 | Cn1cc(C(=O)Oc2c(C(=O)c3ccc(C(F)(F)F)c(N4CCCCC4=O)c3Cl)c(C3CC3)nn2C)cn1 [Compound 049] | 7 (Level 7: above 80% growth control rate) | 0 | 1 (Level 1: below 5% growth control rate) | 1 (Level 1: below 5% growth control rate) | 3 (Level 3: above 20% growth control rate) | 3 (Level 3: above 20% growth control rate) | 8 (Level 8: above 90% growth control rate) | 9 (Level 9: above 95% growth control rate) | 10 | 10 | 2 (Level 2: 5%-20% growth control rate) | 3 (Level 3: above 20% growth control rate) | 6 (Level 6: above 70% growth control rate) | 10 | 6 (Level 6: above 70% growth control rate) | 9 (Level 9: above 95% growth control rate) | 4 (Level 4: above 50% growth control rate) | 10
5 | CCn1nc(C2CC2)c(C(=O)c2ccc(C(F)(F)F)c(N3CCCCC3=O)c2Cl)c1OC(=O)c1cn(C)nc1C [Compound 115] | 8 (Level 8: above 90% growth control rate) | 0 | 1 (Level 1: below 5% growth control rate) | 3 (Level 3: above 20% growth control rate) | 4 (Level 4: above 50% growth control rate) | 4 (Level 4: above 50% growth control rate) | 4 (Level 4: above 50% growth control rate) | 6 (Level 6: above 70% growth control rate) | 10 | 10 | 3 (Level 3: above 20% growth control rate) | 1 (Level 1: below 5% growth control rate) | 9 (Level 9: above 95% growth control rate) | 10 | 2 (Level 2: 5%-20% growth control rate) | 10 | 6 (Level 6: above 70% growth control rate) | 10
